Test results as given in patent US12708649B2, “Compositions and methods for improving skin health and for the treatment and prevention of diseases, disorders and conditions associated with fungi and other pathogenic microbes” (priority 2020, dated 2026).
Values after ≈ are worked out from the molar mass of the structure shown. Where two headings read alike, the source gives them in different places.

Key:
[1] = test system: DB00376; experiment: Antibiotic MIC tests; format: cell-based
[2] = test system: DB10033; experiment: Antibiotic MIC tests; format: cell-based, Bacillus altitudinis; details: for MIC: Bacillus altitudinis
[3] = test system: E. coli ATCC 25922; details: MIC; cited from earlier work
[4] = test system: DB05646; experiment: Antibiotic MIC tests; format: cell-based, Alcaligenes faecalis; details: for MIC: Alcaligenes faecalis
[5] = test system: DB02473; experiment: Antibiotic MIC tests; format: cell-based
[6] = 24 h, read-out: MIC, DB00376 24 hr
[7] = 48 h, read-out: MIC, DB00376 48 hr
[8] = 24 h, read-out: MIC, DB10033 24 hr
[9] = 48 h, read-out: MIC, DB10033 48 hr
[10] = 24 h, read-out: MIC, DB05646 24 hr
[11] = 48 h, read-out: MIC, DB05646 48 hr
[12] = 24 h; read-out: MIC, DB02473 24 hr
[13] = 48 h; read-out: MIC, DB02473 48 hr

Compound | MIC [1, 6] [µg/mL] | MIC [1, 7] [µg/mL] | MIC [2, 8] [µg/mL] | MIC [2, 9] [µg/mL] | E. coli ATCC 25922 CLSI QC Range [3] | MIC [4, 10] [µg/mL] | MIC [4, 11] [µg/mL] | MIC [5, 12] [µg/mL] | MIC [5, 13] [µg/mL] | MIC ([5]; 24 h, read-out: MIC, DB02473 24 hr) [µg/mL] | MIC ([5]; 48 h, read-out: MIC, DB02473 48 hr) [µg/mL] | MIC, DB00376 24 hr [1] [µg/mL] | MIC, DB00376 48 hr [1] [µg/mL] | MIC, DB10033 24 hr [2] [µg/mL] | MIC, DB10033 48 hr [2] [µg/mL] | MIC, DB05646 24 hr [4] [µg/mL] | MIC, DB05646 48 hr [4] [µg/mL] | MIC, DB02473 24 hr ([5]; 24 hr) [µg/mL] | MIC, DB02473 48 hr ([5]; 48 hr) [µg/mL]
NCC[C@H](O)C(=O)N[C@@H]1C[C@H](N)[C@@H](O[C@H]2O[C@H](CN)[C@@H](O)[C@H](O)[C@H]2O)[C@H](O)[C@H]1O[C@H]1O[C@H](CO)[C@@H](O)[C@H](N)[C@H]1O [Amikacin] | 0.5 (≈ 0.854 µM) | 1 (≈ 1.71 µM) | 0.5 (≈ 0.854 µM) | 2 (≈ 3.42 µM) | 0.5-4^ μg/mL | 4 (≈ 6.83 µM) | 4 (≈ 6.83 µM) | 0.25 (≈ 0.427 µM) | 0.25 (≈ 0.427 µM) |  |  |  |  |  |  |  |  |  | 
CC[C@H]1OC(=O)[C@H](C)[C@@H](O[C@H]2C[C@@](C)(OC)[C@@H](O)[C@H](C)O2)[C@H](C)[C@@H](O[C@@H]2O[C@H](C)C[C@H](N(C)C)[C@H]2O)[C@](C)(O)C[C@@H](C)CN(C)[C@H](C)[C@@H](O)[C@]1(C)O [Azithromycin] | 0.25 (≈ 0.334 µM) | 1 (≈ 1.34 µM) | 0.2 (≈ 0.267 µM) | 0.2 (≈ 0.267 µM) |  | 2 (≈ 2.67 µM) | 2 (≈ 2.67 µM) | 0.5 (≈ 0.668 µM) |  |  |  |  |  |  |  |  |  |  | 
C[C@H]1[C@H](NC(=O)/C(=N\OC(C)(C)C(=O)O)c2csc(N)n2)C(=O)N1S(=O)(=O)O [Aztreonam] | 16 (≈ 36.7 µM) | > 64 | > 64 | > 64 | 0.06 to 0.25 µg/mL | 32 (≈ 73.5 µM) | 32 (≈ 73.5 µM) | > 64 | > 64 |  |  |  |  |  |  |  |  |  | 
CO/N=C(\C(=O)N[C@@H]1C(=O)N2C(C(=O)[O-])=C(C[N+]3(C)CCCC3)CS[C@H]12)c1csc(N)n1 [Cefepime] | 1 (≈ 2.08 µM) | 64 (≈ 133 µM) | 64 (≈ 133 µM) | 64 (≈ 133 µM) | 0.016 to 0.12 µg/mL | 4 (≈ 8.32 µM) | 8 (≈ 16.6 µM) | 2 (≈ 4.16 µM) | 4 (≈ 8.32 µM) |  |  |  |  |  |  |  |  |  | 
CO/N=C(\C(=O)N[C@@H]1C(=O)N2C(C(=O)O)=C(CSc3nc(=O)c(=O)[nH]n3C)CS[C@H]12)c1csc(N)n1 [Ceftriaxone] | 2 (≈ 3.61 µM) | 4 (≈ 7.21 µM) | 16 (≈ 28.9 µM) | 16 (≈ 28.9 µM) | 0.03 to 0.12 µg/mL | 0.25 (≈ 0.451 µM) | 0.25 (≈ 0.451 µM) | 4 (≈ 7.21 µM) | 16 (≈ 28.9 µM) |  |  |  |  |  |  |  |  |  | 
O=C(N[C@H](CO)[C@H](O)c1ccc([N+](=O)[O-])cc1)C(Cl)Cl [Chloramphenicol] | 2 (≈ 6.19 µM) | 8 (≈ 24.8 µM) | 2 (≈ 6.19 µM) | 4 (≈ 12.4 µM) |  | 8 (≈ 24.8 µM) | 16 (≈ 49.5 µM) |  |  | 4 (≈ 12.4 µM) | 16 (≈ 49.5 µM) |  |  |  |  |  |  |  | 
[H]/N=C(\N/C(=N/[H])NCCCCCCNC(=N)NC(=N)Nc1ccc(Cl)cc1)Nc1ccc(Cl)cc1 [Chlorhexidine] | 0.5 (≈ 0.989 µM) | 1 (≈ 1.98 µM) | 1 (≈ 1.98 µM) | 2 (≈ 3.96 µM) |  | 32 (≈ 63.3 µM) | 32 (≈ 63.3 µM) | 1 (≈ 1.98 µM) |  |  |  |  |  |  |  |  |  |  | 
O=C(O)c1cn(C2CC2)c2cc(N3CCNCC3)c(F)cc2c1=O [Ciprofloxacin] | 0.0625 (≈ 0.189 µM) | 0.5 (≈ 1.51 µM) | 0.125 (≈ 0.377 µM) | 1 (≈ 3.02 µM) |  | 2 (≈ 6.04 µM) | 2 (≈ 6.04 µM) | ≤ 0.06 | 0.125 (≈ 0.377 µM) |  |  |  |  |  |  |  |  |  | 
CCC[C@@H]1C[C@@H](C(=O)N[C@@H]([C@H]2O[C@H](SC)[C@H](O)[C@@H](O)[C@H]2O)[C@H](C)Cl)N(C)C1 [Clindamycin] | 1 (≈ 2.35 µM) | 4 (≈ 9.41 µM) | 0.125 (≈ 0.294 µM) | 2 (≈ 4.71 µM) |  | > 64 | > 64 | 0.5 (≈ 1.18 µM) | 2 (≈ 4.71 µM) |  |  |  |  |  |  |  |  |  | 
CC[C@H]1OC(=O)[C@H](C)[C@@H](O[C@H]2C[C@@](C)(OC)[C@@H](O)[C@H](C)O2)[C@H](C)[C@@H](O[C@@H]2O[C@H](C)C[C@H](N(C)C)[C@H]2O)[C@](C)(O)C[C@@H](C)C(=O)[C@H](C)[C@@H](O)[C@]1(C)O [Erythromycin] | 0.125 (≈ 0.17 µM) | 0.5 (≈ 0.681 µM) | ≤ 0.06 | ≤ 0.06 |  | 16 (≈ 21.8 µM) | 64 (≈ 87.2 µM) |  | 0.125 (≈ 0.17 µM) |  |  |  |  |  |  |  |  |  | 
C[C@H]1COc2c(N3CCN(C)CC3)c(F)cc3c(=O)c(C(=O)O)cn1c23 [Levofloxacin] | ≤ 0.06 | 0.125 (≈ 0.346 µM) | ≤ 0.06 | 0.125 (≈ 0.346 µM) |  | 1 (≈ 2.77 µM) | 1 (≈ 2.77 µM) | ≤ 0.06 |  |  |  |  |  |  |  |  |  |  | 
C[C@@H](O)[C@H]1C(=O)N2C(C(=O)O)=C(S[C@@H]3CN[C@H](C(=O)N(C)C)C3)[C@H](C)[C@H]12 [Meropenem] | ≤ 0.06 | ≤ 0.06 | ≤ 0.06 | 0.125 (≈ 0.326 µM) | 0.008 to 0.06 µg/mL | ≤ 0.06 | ≤ 0.06 | ≤ 0.06 | ≤ 0.06 |  |  |  |  |  |  |  |  |  | 
CN(C)c1ccc(O)c2c1C[C@H]1C[C@H]3[C@H](N(C)C)C(O)=C(C(N)=O)C(=O)[C@@]3(O)C(O)=C1C2=O [Minocycline] | 0.0625 (≈ 0.137 µM) | 0.25 (≈ 0.546 µM) | 2 (≈ 4.37 µM) | 2 (≈ 4.37 µM) |  | 2 (≈ 4.37 µM) | 4 (≈ 8.74 µM) | 0.125 (≈ 0.273 µM) | 0.5 (≈ 1.09 µM) |  |  |  |  |  |  |  |  |  | 
C/C(=C\C(=O)OCCCCCCCCC(=O)O)C[C@@H]1OC[C@H](C[C@@H]2O[C@H]2[C@@H](C)[C@H](C)O)[C@@H](O)[C@H]1O [Mupirocin] | 2 (≈ 3.99 µM) | 16 (≈ 32 µM) | 8 (≈ 16 µM) | 64 (≈ 128 µM) |  | 64 (≈ 128 µM) | 128 (≈ 256 µM) | ≤ 1 | ≤ 1 |  |  |  |  |  |  |  |  |  | 
CN(C)[C@@H]1C(O)=C(C(N)=O)C(=O)[C@@]2(O)C(O)=C3C(=O)c4c(O)cccc4[C@@](C)(O)[C@H]3C[C@@H]12 [Tetracycline] | 0.0625 (≈ 0.141 µM) |  |  |  |  | 4 (≈ 9 µM) | 16 (≈ 36 µM) |  |  |  |  |  |  |  |  |  |  |  | 
Amoxicillin/Clavulanate (4:1) |  |  |  |  |  |  |  |  |  |  |  | ≤0.06 | ≤0.06 | ≤0.06 | ≤0.06 | 32 | 32 | ≤0.06 | ≤0.06
Neomycin |  |  |  |  |  |  |  |  |  |  |  | 0.125 | 0.25 | 0.125 | 0.125 | 8 | 16 | ≤0.06 | 0.25
Polymyxin B |  |  |  |  | 0.25 to 2 µg/mL |  |  |  |  |  |  | 8 | 16 | 8 | 16 | 1 | 1 | 4 | 8
Povidone-iodine |  |  |  |  |  |  |  |  |  |  |  | >1024 | >1024 | >1024 | >1024 | >1024 | >1024 | >1024 | >1024
